Source: PubChem BioAssay (NCI)
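A five-concentration, 48-hour dose response in 96-well plates underlies each endpoint, interpolated linearly between surrounding concentrations. Here, GI50 denotes the concentration required for 50% inhibition of growth. TGI: concentration producing complete growth inhibition.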

What was measured:
Assay in all cases: DTP human tumour cell line panel, 48 h
[1] = tested on: RPMI-8226 leukemia
[2] = tested on: TK-10 renal
[3] = tested on: NCI-H460 lung
[4] = tested on: A498 renal
[5] = tested on: U251 CNS
[6] = tested on: MDA-MB-435
[7] = tested on: MCF7 breast
[8] = tested on: HL-60(TB) leukemia
[9] = tested on: PC-3 prostate
[10] = tested on: SK-MEL-5 melanoma
[11] = tested on: HCC-2998 colon
[12] = tested on: IGROV1 ovarian
[13] = tested on: EKVX NSCLC
[14] = tested on: OVCAR-4 ovarian
[15] = tested on: HCT-116 colon
[16] = tested on: MALME-3M melanoma
[17] = tested on: HOP-92 NSCLC
[18] = tested on: OVCAR-8 ovarian
[19] = tested on: SNB-75 CNS
[20] = tested on: SF-539 CNS
[21] = tested on: CCRF-CEM leukemia
[22] = tested on: HS 578T breast
[23] = tested on: SNB-19 CNS
[24] = tested on: OVCAR-5 ovarian
[25] = tested on: ACHN renal
[26] = tested on: COLO 205 colon
[27] = tested on: SN12C renal
[28] = tested on: UACC-257 melanoma
[29] = tested on: NCI-H226 lung
[30] = tested on: A549 NSCLC
[31] = tested on: 786-0 renal
[32] = tested on: HT29 colon
[33] = tested on: SK-OV-3 ovarian
[34] = tested on: CAKI-1 renal
[35] = tested on: NCI-H522 lung
[36] = tested on: UO-31 renal
[37] = tested on: SR leukemia
[38] = tested on: KM12 colon
[39] = tested on: HOP-62 NSCLC
[40] = tested on: T-47D breast
[41] = tested on: MDA-MB-231 breast
[42] = tested on: RXF 393 renal
[43] = tested on: MOLT-4 leukemia
[44] = tested on: SF-268 CNS
[45] = tested on: SF-295 CNS
[46] = tested on: NCI-H23 lung
[47] = tested on: SW-620 colon
[48] = tested on: DU-145 prostate
[49] = tested on: SK-MEL-2 melanoma
[50] = tested on: SK-MEL-28 melanoma
[51] = tested on: HCT-15 colon
[52] = tested on: M14 melanoma
[53] = tested on: BT-549 breast
[54] = tested on: NCI/ADR-RES ovarian
[55] = tested on: UACC-62 melanoma
[56] = tested on: K-562 leukemia

Q: O=C(NCCCNc1cc(-c2cn(-c3ccccc3)nc2-c2cccc(O)c2)ccn1)Nc1ccc(F)cc1 was tested. Which GI50 [1] did it give?
A: 0.865 µM

Q: And the TGI [1]?
A: 5.47 µM

Q: And the GI50 [2]?
A: 6.78 µM

Q: What about the TGI [2] of the same compound?
A: 20.3 µM

Q: And the GI50 [3]?
A: 2.35 µM

Q: What about the TGI [3] of the same compound?
A: 5.88 µM

Q: And the GI50 [4]?
A: 1.21 µM

Q: And the TGI [4]?
A: 4.96 µM

Q: What about the GI50 [5] of the same compound?
A: 2.05 µM

Q: What about the TGI [5] of the same compound?
A: 7.55 µM

Q: What about the GI50 [6] of the same compound?
A: 1.66 µM

Q: And the TGI [6]?
A: 5.05 µM

Q: And the GI50 [7]?
A: 2.32 µM

Q: And the TGI [7]?
A: 6.04 µM

Q: And the GI50 [8]?
A: 2.15 µM

Q: And the TGI [8]?
A: 14.2 µM

Q: And the GI50 [9]?
A: 1.33 µM

Q: What about the TGI [9] of the same compound?
A: 8.92 µM

Q: And the GI50 [10]?
A: 1.64 µM

Q: What about the TGI [10] of the same compound?
A: 4.83 µM

Q: What about the GI50 [11] of the same compound?
A: 1.09 µM

Q: And the TGI [11]?
A: 4.05 µM

Q: What about the GI50 [12] of the same compound?
A: 1.23 µM

Q: What about the TGI [12] of the same compound?
A: 5.82 µM

Q: And the GI50 [13]?
A: 2.74 µM

Q: What about the TGI [13] of the same compound?
A: 9.51 µM

Q: And the GI50 [14]?
A: 1.46 µM

Q: And the TGI [14]?
A: 8.21 µM

Q: What about the GI50 [15] of the same compound?
A: 1.62 µM

Q: What about the TGI [15] of the same compound?
A: 5.82 µM

Q: What about the GI50 [16] of the same compound?
A: 0.826 µM

Q: What about the TGI [16] of the same compound?
A: 3.42 µM

Q: What about the GI50 [17] of the same compound?
A: 0.86 µM

Q: What about the TGI [17] of the same compound?
A: 4.97 µM

Q: And the GI50 [18]?
A: 2.13 µM

Q: What about the TGI [18] of the same compound?
A: 9.26 µM

Q: What about the GI50 [19] of the same compound?
A: 0.543 µM

Q: What about the TGI [19] of the same compound?
A: 3.18 µM

Q: And the GI50 [20]?
A: 1.98 µM

Q: What about the TGI [20] of the same compound?
A: 5.38 µM

Q: What about the GI50 [21] of the same compound?
A: 1.42 µM

Q: And the TGI [21]?
A: 25 µM

Q: What about the GI50 [22] of the same compound?
A: 0.984 µM

Q: And the TGI [22]?
A: 5.31 µM

Q: What about the GI50 [23] of the same compound?
A: 3.29 µM

Q: And the TGI [23]?
A: 9.75 µM

Q: And the GI50 [24]?
A: 3.37 µM

Q: And the TGI [24]?
A: 9.12 µM

Q: What about the GI50 [25] of the same compound?
A: 3.16 µM

Q: What about the TGI [25] of the same compound?
A: 14.2 µM

Q: What about the GI50 [26] of the same compound?
A: 2.34 µM

Q: What about the TGI [26] of the same compound?
A: 6.28 µM

Q: And the GI50 [27]?
A: 2.79 µM

Q: What about the TGI [27] of the same compound?
A: 8.37 µM

Q: And the GI50 [28]?
A: 3.07 µM

Q: What about the TGI [28] of the same compound?
A: 7.54 µM

Q: What about the GI50 [29] of the same compound?
A: 3.39 µM

Q: And the TGI [29]?
A: 8.91 µM

Q: And the GI50 [30]?
A: 3.12 µM

Q: And the TGI [30]?
A: 21.7 µM

Q: And the GI50 [31]?
A: 0.855 µM

Q: And the TGI [31]?
A: 3.61 µM

Q: And the GI50 [32]?
A: 1.09 µM

Q: And the TGI [32]?
A: 4.99 µM

Q: What about the GI50 [33] of the same compound?
A: 3.12 µM

Q: What about the TGI [33] of the same compound?
A: 10.8 µM

Q: What about the GI50 [34] of the same compound?
A: 2.04 µM

Q: What about the TGI [34] of the same compound?
A: 10.7 µM

Q: And the GI50 [35]?
A: 4.03 µM

Q: What about the TGI [35] of the same compound?
A: 9.49 µM

Q: And the GI50 [36]?
A: 1.58 µM

Q: And the TGI [36]?
A: 9.7 µM

Q: And the GI50 [37]?
A: 1.51 µM

Q: And the TGI [37]?
A: 13.8 µM

Q: What about the GI50 [38] of the same compound?
A: 2.61 µM

Q: And the TGI [38]?
A: 5.79 µM

Q: What about the GI50 [39] of the same compound?
A: 3.24 µM

Q: What about the TGI [39] of the same compound?
A: 9.26 µM

Q: What about the GI50 [40] of the same compound?
A: 1.89 µM

Q: What about the TGI [40] of the same compound?
A: 11 µM

Q: What about the GI50 [41] of the same compound?
A: 2.18 µM

Q: And the TGI [41]?
A: 7.78 µM

Q: And the GI50 [42]?
A: 0.966 µM

Q: What about the TGI [42] of the same compound?
A: 4.85 µM

Q: What about the GI50 [43] of the same compound?
A: 1.25 µM

Q: What about the TGI [43] of the same compound?
A: 15.6 µM

Q: And the GI50 [44]?
A: 2.61 µM

Q: And the TGI [44]?
A: 11.2 µM

Q: What about the GI50 [45] of the same compound?
A: 1.38 µM

Q: What about the TGI [45] of the same compound?
A: 4.84 µM

Q: And the GI50 [46]?
A: 3.11 µM

Q: What about the TGI [46] of the same compound?
A: 7.65 µM

Q: And the GI50 [47]?
A: 3.04 µM

Q: What about the TGI [47] of the same compound?
A: 6.73 µM

Q: And the GI50 [48]?
A: 4.22 µM

Q: What about the TGI [48] of the same compound?
A: 19.3 µM

Q: What about the GI50 [49] of the same compound?
A: 4 µM

Q: And the TGI [49]?
A: 10.1 µM

Q: And the GI50 [50]?
A: 2.54 µM

Q: And the TGI [50]?
A: 5.64 µM

Q: What about the GI50 [51] of the same compound?
A: 0.936 µM

Q: What about the TGI [51] of the same compound?
A: 4.04 µM

Q: And the GI50 [52]?
A: 1.57 µM

Q: What about the TGI [52] of the same compound?
A: 5.85 µM

Q: And the GI50 [53]?
A: 2.18 µM

Q: And the TGI [53]?
A: 11.6 µM

Q: And the GI50 [54]?
A: 3.51 µM

Q: And the TGI [54]?
A: 12.5 µM

Q: And the GI50 [55]?
A: 3.14 µM

Q: What about the TGI [55] of the same compound?
A: 6.6 µM

Q: And the GI50 [56]?
A: 0.812 µM

Q: What about the TGI [56] of the same compound?
A: 25 µM
